According to PubChem BioAssay AID248 (DTP/NCI, 2004):
Where “and” joins values, the source holds several entries; their conditions need not be identical. Identical values can stand only once. Toxic doses and inconclusive results are not listed.

System: L1210 leukemia ip in BDF1 mice, survival T/C
Assay: NCI In Vivo Anticancer Drug Screen. Data for tumor model L1210 Leukemia (intraperitoneal) in B6D2F1 (BDF1) mice
Conditions: endpoint: mean survival time, higher = longer survival
Summary of the method: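 Survival endpoint. Drug-treated group vs vehicle group, expressed as T divided by C. Tumor passaged by transplantation.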

SMILES: N=[N+]=CC(=O)CCC(NC(=O)C(CCC(=O)C=[N+]=N)NC(=O)CCC(N)C(=O)O)C(=O)O (stereo unspecified)
- T/C (dose: 0.01 mg/kg/injection, schedule: Q01DX009 (ip), vehicle: water): 114 % of control
- T/C (dose: 0.02 mg/kg/injection, schedule: Q01DX009 (ip), vehicle: other): 110 % of control
- T/C (dose: 0.02 mg/kg/injection, schedule: Q01DX015 (ip), vehicle: water): 93 % of control
- T/C (dose: 0.05 mg/kg/injection, schedule: Q01DX009 (ip), vehicle: other): 102 % of control and 115 % of control
- T/C (dose: 0.05 mg/kg/injection, schedule: Q01DX015 (ip), vehicle: water): 102 % of control
- T/C (dose: 0.05 mg/kg/injection, schedule: Q01DX017 (ip), vehicle: saline): 98 % of control and 106 % of control
- T/C (dose: 0.05 mg/kg/injection, schedule: Q02DX009 (ip), vehicle: saline): 98 % of control
- T/C (dose: 0.05 mg/kg/injection, schedule: Q03HX024 (ip), vehicle: water): 93 % of control
- T/C (dose: 0.07 mg/kg/injection, schedule: Q01DX009 (ip), vehicle: water): 156 % of control
- T/C (dose: 0.1 mg/kg/injection, schedule: Q01DX009 (ip), vehicle: other): 117 % of control
- T/C (dose: 0.1 mg/kg/injection, schedule: Q01DX015 (ip), vehicle: water): 108 % of control
- T/C (dose: 0.1 mg/kg/injection, schedule: Q01DX017 (ip), vehicle: saline): 123 % of control
- T/C (dose: 0.1 mg/kg/injection, schedule: Q02DX009 (ip), vehicle: saline): 116 % of control
- T/C (dose: 0.1 mg/kg/injection, schedule: Q04DX005 (ip), vehicle: saline): 102 % of control
- T/C (dose: 0.2 mg/kg/injection, schedule: Q01DX009 (ip), vehicle: other): 107 % of control
- T/C (dose: 0.2 mg/kg/injection, schedule: Q01DX017 (ip), vehicle: saline): 158 % of control
- T/C (dose: 0.2 mg/kg/injection, schedule: Q02DX009 (ip), vehicle: saline): 123 % of control
- T/C (dose: 0.2 mg/kg/injection, schedule: Q04DX005 (ip), vehicle: saline): 104 % of control
- T/C (dose: 0.2 mg/kg/injection, schedule: Q08DX003 (ip), vehicle: saline): 112 % of control
- T/C (dose: 0.4 mg/kg/injection, schedule: Q01DX015 (ip), vehicle: other): 117 % of control
- T/C (dose: 0.4 mg/kg/injection, schedule: Q01DX015 (ip), vehicle: water): 153 % of control
- T/C (dose: 0.4 mg/kg/injection, schedule: Q01DX017 (ip), vehicle: saline): 110 % of control and 123 % of control
- T/C (dose: 0.4 mg/kg/injection, schedule: Q04DX005 (ip), vehicle: saline): 121 % of control
- T/C (dose: 0.4 mg/kg/injection, schedule: Q08DX003 (ip), vehicle: saline): 107 % of control
- T/C (dose: 0.6 mg/kg/injection, schedule: Q01DX015 (ip), vehicle: water): 183 % of control
- T/C (dose: 0.8 mg/kg/injection, schedule: Q04DX005 (ip), vehicle: saline): 118 % of control
- T/C (dose: 0.8 mg/kg/injection, schedule: Q08DX003 (ip), vehicle: saline): 109 % of control
- T/C (dose: 1.0 mg/kg/injection, schedule: Q01DX009 (oral), vehicle: water): 96 % of control
- T/C (dose: 1.0 mg/kg/injection, schedule: Q02DX005 (ip), vehicle: other): 160 % of control
- T/C (dose: 1.0 mg/kg/injection, schedule: Q02DX005 (oral), vehicle: other): 163 % of control
- T/C (dose: 1.25 mg/kg/injection, schedule: Q02DX008 (ip), vehicle: other): 189 % of control
- T/C (dose: 1.25 mg/kg/injection, schedule: Q02DX008 (ip), vehicle: water): 166 % of control
- T/C (dose: 1.25 mg/kg/injection, schedule: Q02DX008 (oral), vehicle: water): 156 % of control
- T/C (dose: 1.6 mg/kg/injection, schedule: Q08DX003 (ip), vehicle: saline): 110 % of control
- T/C (dose: 2.0 mg/kg/injection, schedule: Q02DX005 (oral), vehicle: other): 186 % of control
- T/C (dose: 2.5 mg/kg/injection, schedule: Q02DX008 (oral), vehicle: water): 154 % of control
- T/C (dose: 4.0 mg/kg/injection, schedule: Q02DX005 (ip), vehicle: other): 176 % of control
- T/C (dose: 4.0 mg/kg/injection, schedule: Q02DX005 (oral), vehicle: other): 195 % of control
- T/C (dose: 5.0 mg/kg/injection, schedule: Q02DX008 (ip), vehicle: other): 206 % of control
- T/C (dose: 5.0 mg/kg/injection, schedule: Q04DX003 (ip), vehicle: other): 155 % of control
- T/C (dose: 5.0 mg/kg/injection, schedule: Q04DX003 (ip), vehicle: saline): 170 % of control
- T/C (dose: 6.0 mg/kg/injection, schedule: Q02DX005 (ip), vehicle: other): 197 % of control
- T/C (dose: 6.0 mg/kg/injection, schedule: Q02DX005 (oral), vehicle: other): 204 % of control
- T/C (dose: 6.2 mg/kg/injection, schedule: Q03HX024 (ip), vehicle: water): 193 % of control
- T/C (dose: 8.0 mg/kg/injection, schedule: Q02DX005 (ip), vehicle: other): 183 % of control
- T/C (dose: 8.0 mg/kg/injection, schedule: Q02DX005 (oral), vehicle: other): 200 % of control
- T/C (dose: 10.0 mg/kg/injection, schedule: Q02DX008 (ip), vehicle: other): 117 % of control
- T/C (dose: 10.0 mg/kg/injection, schedule: Q02DX008 (oral), vehicle: other): 166 % of control
- T/C (dose: 10.0 mg/kg/injection, schedule: Q04DX003 (ip), vehicle: other): 155 % of control and 173 % of control
- T/C (dose: 10.0 mg/kg/injection, schedule: Q04DX003 (ip), vehicle: saline): 192 % of control
- T/C (dose: 10.0 mg/kg/injection, schedule: Q04DX003 (ip), vehicle: water): 167 % of control
- T/C (dose: 12.5 mg/kg/injection, schedule: Q01DX001 (ip), vehicle: clinical formulation): 112 % of control
- T/C (dose: 12.5 mg/kg/injection, schedule: Q01DX001 (ip), vehicle: saline): 119 % of control and 122 % of control
- T/C (dose: 12.5 mg/kg/injection, schedule: Q03HX024 (ip), vehicle: water): 97 % of control
- T/C (dose: 15.0 mg/kg/injection, schedule: Q02DX008 (oral), vehicle: other): 104 % of control
- T/C (dose: 15.0 mg/kg/injection, schedule: Q## X003 (ip), vehicle: water): 185 % of control
- T/C (dose: 20.0 mg/kg/injection, schedule: Q02DX008 (oral), vehicle: other): 116 % of control
- T/C (dose: 20.0 mg/kg/injection, schedule: Q04DX003 (ip), vehicle: other): 166 % of control
- T/C (dose: 20.0 mg/kg/injection, schedule: Q04DX003 (ip), vehicle: saline): 188 % of control
- T/C (dose: 20.0 mg/kg/injection, schedule: Q04DX003 (ip), vehicle: water): 167 % of control and 171 % of control
- T/C (dose: 20.0 mg/kg/injection, schedule: Q## X006 (ip), vehicle: water): 156 % of control
- T/C (dose: 25.0 mg/kg/injection, schedule: Q01DX001 (ip), vehicle: clinical formulation): 123 % of control
- T/C (dose: 25.0 mg/kg/injection, schedule: Q07DX002 (ip), vehicle: water): 156 % of control and 167 % of control
- T/C (dose: 30.0 mg/kg/injection, schedule: Q04DX003 (ip), vehicle: other): 202 % of control
- T/C (dose: 30.0 mg/kg/injection, schedule: Q## X003 (ip), vehicle: water): 209 % of control
- T/C (dose: 40.0 mg/kg/injection, schedule: Q04DX003 (ip), vehicle: saline): 170 % of control
- T/C (dose: 40.0 mg/kg/injection, schedule: Q04DX003 (ip), vehicle: water): 200 % of control and 206 % of control
- T/C (dose: 40.0 mg/kg/injection, schedule: Q## X003 (ip), vehicle: water): 194 % of control
- T/C (dose: 40.0 mg/kg/injection, schedule: Q## X006 (ip), vehicle: water): 188 % of control
- T/C (dose: 50.0 mg/kg/injection, schedule: Q01DX001 (ip), vehicle: saline): 150 % of control
- T/C (dose: 50.0 mg/kg/injection, schedule: Q01DX001 (ip), vehicle: water): 111 % of control
- T/C (dose: 50.0 mg/kg/injection, schedule: Q07DX002 (ip), vehicle: other): 158 % of control
- T/C (dose: 50.0 mg/kg/injection, schedule: Q## X003 (ip), vehicle: water): 178 % of control
- T/C (dose: 60.0 mg/kg/injection, schedule: Q04DX003 (ip), vehicle: water): 195 % of control
- T/C (dose: 60.0 mg/kg/injection, schedule: Q## X003 (ip), vehicle: water): 185 % of control
- T/C (dose: 60.0 mg/kg/injection, schedule: Q## X006 (ip), vehicle: water): 115 % of control
- T/C (dose: 75.0 mg/kg/injection, schedule: Q07DX002 (ip), vehicle: water): 192 % of control
- T/C (dose: 80.0 mg/kg/injection, schedule: Q04DX003 (ip), vehicle: saline): 100 % of control
- T/C (dose: 80.0 mg/kg/injection, schedule: Q04DX003 (ip), vehicle: water): 159 % of control
- T/C (dose: 80.0 mg/kg/injection, schedule: Q## X006 (ip), vehicle: water): 115 % of control
- T/C (dose: 100.0 mg/kg/injection, schedule: Q01DX001 (ip), vehicle: clinical formulation): 153 % of control
- T/C (dose: 100.0 mg/kg/injection, schedule: Q07DX002 (ip), vehicle: other): 171 % of control
- T/C (dose: 100.0 mg/kg/injection, schedule: Q07DX002 (ip), vehicle: water): 194 % of control
- T/C (dose: 150.0 mg/kg/injection, schedule: Q07DX002 (ip), vehicle: water): 194 % of control
- T/C (dose: 200.0 mg/kg/injection, schedule: Q01DX001 (ip), vehicle: other): 158 % of control
- T/C (dose: 200.0 mg/kg/injection, schedule: Q01DX001 (ip), vehicle: saline): 96 % of control
- T/C (dose: 200.0 mg/kg/injection, schedule: Q01DX001 (ip), vehicle: water): 109 % of control
- T/C (dose: 200.0 mg/kg/injection, schedule: Q01DX001 (oral), vehicle: other): 155 % of control
- T/C (dose: 250.0 mg/kg/injection, schedule: Q01DX001 (ip), vehicle: water): 117 % of control
- T/C (dose: 300.0 mg/kg/injection, schedule: Q01DX001 (ip), vehicle: other): 101 % of control
- T/C (dose: 300.0 mg/kg/injection, schedule: Q01DX001 (ip), vehicle: water): 96 % of control and 106 % of control
